Laboratory results: patent US10800789B2, “Antiviral compounds” (Gilead Pharmasset LLC, priority 2012, dated 2020)
Like-named read-outs stand apart in the source and are kept apart here.

How the values were obtained:
[1] = system: stable HCV 1b RLuc replicon cells (dicistronic genotype 1b Con1 replicon); experiment: Renilla luciferase HCV replicon reporter assay, genotype 1b; assay type: cell-based; conditions: Hepatitis C virus, 72 h, stable 1b Con1 RLuc replicon cells, 72 hours; read-out: 1b
Procedure: (§1) Evaluation of Cell-Based Anti-HCV Activity:
(§2) Antiviral potency (EC50) was determined using a Renilla luciferase (RLuc)-based HCV replicon reporter assay. To perform the assay for genotype 1 and 2a JFH-1, stable HCV 1a RLuc replicon cells (harboring a dicistronic genotype 1a H77 replicon that encodes a RLuc reporter), stable HCV 1b RLuc replicon cells (harboring a dicistronic genotype 1b Con1 replicon that encodes a RLuc reporter), or stable HCV 2a JFH-1 Rluc replicon cells (harboring a dicistronic genotype 2a JFH-1 replicon that encodes a RLuc reporter; with L31 present in NS5A) were dispensed into 384-well plates for EC50 assays. To perform the assay for genotype 2a (with M31 present in NS5A) or 2b, NS5A chimeric genotype 2a JFH-1 replicons that encodes a RLuc-Neo reporter and either genotype 2a J6 strain NS5A gene or genotype 2b MD2b-1 strain NS5A gene (both with M31 present) respectively, were either transiently transfected (t) into Huh-Lunet cells or were established as stably replicating replicon cells (s) is provided. Either cells were dispensed into 384-well plates for EC50 assays. To perform the assay for genotype 3 and 4, NS5A chimeric genotype 1b Con1 replicons that encodes a Pi-RLuc reporter and either genotype 3a S52 strain NS5A gene or genotype 4a ED43 strain NS5A gene respectively, were transiently transfected (t) into Huh-Lunet cells, which were subsequently dispensed into 384-well plates. Compounds were dissolved in DMSO at a concentration of 10 mM and diluted in DMSO either manually or using an automated pipeting instrument. Serially 3-fold diluted compounds were either manually mixed with cell culture media and added to the seeded cells or directly added to the cells using an automated instrument. DMSO was used as a negative (solvent; no inhibition) control, and the protease inhibitor ITMN-191 was included at a concentration>100×EC50 as a positive control. 72 hours later, cells were lysed and Renilla luciferase activity quantified as recommended by the manufacturer (Promega-Madison, Wis.). Non-linear regression was performed to calculate EC50 values.

[2] = system: stable HCV 1a RLuc replicon cells (dicistronic genotype 1a H77 replicon); experiment: Renilla luciferase HCV replicon reporter assay, genotype 1a; assay type: cell-based; conditions: Hepatitis C virus, 72 h, stable 1a H77 RLuc replicon cells
Procedure: as §1, §2

[3] = system: stable HCV 2a JFH-1 Rluc replicon cells (L31 present in NS5A); experiment: Renilla luciferase HCV replicon reporter assay, genotype 2a JFH-1; assay type: cell-based; conditions: Hepatitis C virus
Procedure: as §1, §2

[4] = system: NS5A chimeric genotype 2a JFH-1 replicon with genotype 2a J6 strain NS5A gene (M31 present); experiment: Replicon assay, genotype 2a J6 NS5A chimera; assay type: cell-based, HCV; conditions: Hepatitis C virus
Procedure: as §1, §2

[5] = system: NS5A chimeric genotype 2a JFH-1 replicon with genotype 2b MD2b-1 strain NS5A gene (M31 present); experiment: Replicon assay, genotype 2b NS5A chimera; assay type: cell-based, HCV; conditions: Hepatitis C virus
Procedure: as §1, §2

[6] = system: NS5A chimeric genotype 1b Con1 replicon with genotype 3a S52 strain NS5A gene; experiment: Replicon assay, genotype 3a NS5A chimera; assay type: cell-based, HCV; conditions: Hepatitis C virus
[7] = system: NS5A chimeric genotype 1b Con1 replicon with genotype 4a ED43 strain NS5A gene; experiment: Replicon assay, genotype 4a NS5A chimera; assay type: cell-based, HCV; conditions: Hepatitis C virus
[8] = read-out: 2a JFH (nM), genotype 2a JFH-1 replicon (L31 in NS5A), stable cells
[9] = read-out: 2a JFH, stable 2a JFH-1 Rluc replicon cells, L31 in NS5A, activity range
[10] = read-out: 2a J6 (t) (nM), genotype 2a J6 NS5A chimeric replicon (M31), transiently transfected (t) into Huh-Lunet cells
[11] = read-out: 2a J6 (t), transiently transfected (t) into Huh-Lunet cells, activity range
[12] = 2BS, read-out: 2b (s), stably replicating replicon cells (s), activity range
[13] = read-out: 2b (s) (nM), genotype 2b MD2b-1 NS5A chimeric replicon (M31), stably replicating replicon cells (s)
[14] = read-out: 3a (s) (nM), genotype 3a NS5A chimeric replicon, stable replicon cells (s)
[15] = read-out: 3a (s), (s), activity range
[16] = read-out: 3a (t) (nM), genotype 3a NS5A chimeric replicon, transiently transfected (t)
[17] = read-out: 3a (t), transiently transfected (t) into Huh-Lunet cells, activity range
[18] = read-out: 4a (s) (nM), genotype 4a NS5A chimeric replicon, stable replicon cells (s)
[19] = read-out: 4a (s), (s), activity range

Row | Compound | EC50 [1] [nM] | EC50 [2] [nM] | EC50 ([2]; activity range) [nM] | EC50 [3, 8] [nM] | EC50 [3, 9] [nM] | EC50 [4, 10] [nM] | EC50 [4, 11] [nM] | EC50 [5, 12] [nM] | EC50 [5, 13] [nM] | EC50 [6, 14] [nM] | EC50 [6, 15] [nM] | EC50 [6, 16] [nM] | EC50 [6, 17] [nM] | EC50 [7, 18] [nM] | EC50 [7, 19] [nM]
1 | COC(=O)NC(C(=O)N1[C@@H](C)CC[C@H]1c1nc2ccc3cc4c(cc3c2[nH]1)OCc1cc(-c2cnc([C@@H]3CC[C@H](C)N3C(=O)[C@@H](NC(=O)OC)[C@@H](C)OC)[nH]2)ccc1-4)C1CCOCC1 (stereo partly drawn) [EG, methyl{2-[(2S,5S)-2-(9-{2-[(2S,5S)-1-{(2S,3R)-3-methoxy-2-[(methoxycarbonyl)amino]butanoyl}-5-methylpyrrolidin-2-yl]-1H-imidazol-5-yl}-1,11-dihydroisochromeno[4′,3′:6,7]naphtho[1,2-d]imidazol-2-yl)-5-methylpyrrolidin-1-yl]-2-oxo-1-(tetrahydro-2H-pyran-4-yl)ethyl}carbamate] | 0.045 | 0.036 | < 0.1 | 0.022 | < 0.1 | 0.023 | < 0.1 | < 0.1 | 0.072 | 0.076 | < 0.1 | 0.103 | 0.1 to 0.999 | 0.016 | < 0.1
2 | COC(=O)N[C@H](C(=O)N1[C@@H](C)CC[C@H]1c1nc2ccc3cc4c(cc3c2[nH]1)OCc1cc(-c2cnc([C@@H]3C[C@H](C)CN3C(=O)[C@@H](NC(=O)OC)C3CCOCC3)[nH]2)ccc1-4)C(C)C [EJ, methyl[(2S)-1-{(2S,5S)-2-[9-(2-{(2S,4S)-1-[(2S)-2-[(methoxycarbonyl)amino]-2-(tetrahydro-2H-pyran-4-yl)acetyl]-4-methylpyrrolidin-2-yl}-1H-imidazol-5-yl)-1,11-dihydroisochromeno[4′,3′:6,7]naphtho[1,2-d]imidazol-2-yl]-5-methylpyrrolidin-1-yl}-3-methyl-1-oxobutan-2-yl]carbamate] | 0.039 | 0.016 | < 0.1 | 0.028 | < 0.1 | 0.041 | < 0.1 | 0.1 to 0.999 | 0.112 | 0.081 | < 0.1 | 0.046 | < 0.1 | 0.017 | < 0.1
3 | CC[C@H]1CC[C@@H](c2nc3ccc4cc5c(cc4c3[nH]2)OCc2cc(-c3cnc([C@@H]4CC[C@H](C)N4C(=O)[C@@H](NC(=O)OC)[C@@H](C)OC)[nH]3)ccc2-5)N1C(=O)[C@@H](NC(=O)OC)[C@@H](C)OC [EK, methyl[(2S,3R)-1-{(2S,5S)-2-[5-(2-{(2S,5S)-5-ethyl-1-[N-(methoxycarbonyl)-O-methyl-L-threonyl]pyrrolidin-2-yl}-1,11-dihydroisochromeno[4′,3′:6,7]naphtho[1,2-d]imidazol-9-yl)-1H-imidazol-2-yl]-5-methylpyrrolidin-1-yl}-3-methoxy-1-oxobutan-2-yl]carbamate] | 0.05 | 0.034 | < 0.1 | 0.03 | < 0.1 | 0.116 | 0.1 to 0.999 | 0.1 to 0.999 | 0.238 | 0.173 | 0.1 to 0.999 | – | – | 0.025 | < 0.1
4 | CC[C@H]1CC[C@@H](c2ncc(-c3ccc4c(c3)COc3cc5c(ccc6nc([C@@H]7CC[C@H](C)N7C(=O)[C@@H](NC(=O)OC)[C@@H](C)OC)[nH]c65)cc3-4)[nH]2)N1C(=O)[C@@H](NC(=O)OC)[C@@H](C)OC [EM, methyl[(2S,3R)-1-{(2S,5S)-2-ethyl-5-[5-(2-{(2S,5S)-1-[N-(methoxycarbonyl)-O-methyl-L-threonyl]-5-methylpyrrolidin-2-yl}-1,11dihydroisochromeno[4′,3′:6,7]naphtho[1,2-d]imidazol-9-yl)-1H-imidazol-2-yl]pyrrolidin-1-yl}-3-methoxy-1-oxobutan-2-yl]carbamate] | 0.02 | 0.013 | < 0.1 | 0.012 | < 0.1 | 0.043 | < 0.1 | < 0.1 | 0.082 | 0.061 | < 0.1 | – | – | 0.008 | < 0.1
5 | COC[C@H]1C[C@@H](c2ncc(-c3ccc4c(c3)COc3cc5c(ccc6nc([C@@H]7C[C@H](COC)CN7C(=O)[C@@H](NC(=O)OC)[C@@H](C)OC)[nH]c65)cc3-4)[nH]2)N(C(=O)[C@@H](NC(=O)OC)[C@@H](C)OC)C1 [EX, Methyl {(2S,3R)-3-methoxy-1-[(2S,4S)-2-(9-{2-[(2S,4S)-1-[N-(methoxycarbonyl)-O-methyl-L-threonyl]-4-(methoxymethyl)pyrrolidin-2-yl]-1H-imidazol-5-yl}-1,11-dihydroisochromeno[4′,3′:6,7]naphtho[1,2-d]imidazol-2-yl)-4-(methoxymethyl)pyrrolidin-1-yl]-1-oxobutan-2-yl}carbamate] | 0.197 | 0.079 | < 0.1 | 0.027 | < 0.1 | 0.052 | < 0.1 | 0.1 to 0.999 | 0.393 | 1.69 | 1 to 44 | – | – | 0.072 | < 0.1
6 | COC(=O)N[C@H](C(=O)N1C[C@@H](C)C[C@H]1c1ncc(-c2ccc3c(c2)COc2cc4c(ccc5nc([C@@H]6C[C@H](C)CN6C(=O)[C@@H](NC(=O)OC)[C@@H](C)OC)[nH]c54)cc2-3)[nH]1)[C@@H](C)OC [EZ, Methyl [(2S,3R)-3-methoxy-1-{(2S,4S)-2-[9-(2-{(2S,4S)-1-[N-(methoxycarbonyl)-O-methyl-L-threonyl]-4-methylpyrrolidin-2-yl}-1H-imidazol-5-yl)-1,11-dihydroisochromeno[4′,3′:6,7]naphtho[1,2-d]imidazol-2-yl]-4-methylpyrrolidin-1-yl}-1-oxobutan-2-yl]carbamate] | 0.084 | 0.028 | < 0.1 | 0.016 | < 0.1 | 0.036 | < 0.1 | 0.1 to 0.999 | 0.262 | 0.263 | 0.1 to 0.999 | – | – | 0.025 | < 0.1
7 | COC(=O)N[C@H](C(=O)N1C[C@@H](C)C[C@H]1c1ncc(-c2ccc3c(c2)COc2cc4c(ccc5nc([C@@H]6CC[C@H](C)N6C(=O)[C@@H](NC(=O)OC)C6CCOCC6)[nH]c54)cc2-3)[nH]1)C(C)C [FN, Methyl [(2S)-1-{(2S,4S)-2-[5-(2-{(2S,5S)-1-[(2S)-2-[(methoxycarbonyl)amino]-2-(tetrahydro-2H-pyran-4-yl)acetyl]-5-methylpyrrolidin-2-yl}-1,11-dihydroisochromeno[4′,3′:6,7]naphtho[1,2-d]imidazol-9-yl)-1H-imidazol-2-yl]-4-methylpyrrolidin-1-yl}-3-methyl-1-oxobutan-2-yl]carbamate] | 0.053 | 0.035 | < 0.1 | 0.028 | < 0.1 | 0.068 | < 0.1 | 0.1 to 0.999 | 0.142 | 0.084 | < 0.1 | – | – | 0.02 | < 0.1
